Results as given in patent US12570661B2, “Isoform-specific aldehyde dehydrogenase inhibitors” (The Board of Trustees of the Leland Stanford Junior …, priority 2020, dated 2026).
Read-outs that look alike come from different tables or passages of the source.

Legend:
SW480 cells (spheroid) = assay: Matrigel spheroid growth / viability assay, SW480; format: cell-based; conditions: for effect on SW480 spheroid formation: 2-μM dose; for GI50: Homo sapiens, SW480, 168 h
Protocol: To prepare Matrigel-coated culture plates, 96-well and 24-well plates were placed on ice and coated with 25 μL or 300 μL, respectively, of Matrigel matrix (Corning, LDEV-free) that had been thawed overnight at 4° C. The plates were then placed in a 37° C. incubator for 30 min to allow the Matrigel to solidify. SW480 or HCT116 cells were suspended in spheroid culture medium (RPMI-1640 containing 20 ng/mL recombinant human epidermal growth factor (Abcam, ab9697), 20 ng/mL recombinant human fibroblast growth factor (BioVision, 4037), 5 μg/mL heparin (Sigma), 1× N-2 supplement (Thermo Fisher Scientific), 100 U/mL penicillin, and 100 μg/mL streptomycin) and then seeded into the 96-well and 24-well Matrigel-coated plates at densities of 1,000 or 5,000 cells/well and total well volumes of […] or 1 mL, respectively. Compounds were diluted in spheroid culture medium and added to the wells, and the spheroid were grown at 37° C. with 5% CO2 for 7 days.
To quantify spheroid growth at the 7-day endpoint, unstained spheroids were imaged with phase-contrast illumination using a Keyence BZ-X710 microscope. Some cultures were also stained with crystal violet to enable brightfield imaging. Briefly, the Matrigel spheroids cultures were treated with PBS containing 0.5% crystal violet and 5% methanol for 15 min at 37° C. and then gently washed 4×5 min with PBS. Spheroid sizes were quantified with ImageJ (Fiji) software using masks created with the default “Threshold” function and foreground/background adjustments to optimize masking fidelity. The full field of view was then selected for “Analyze Particles” analysis, providing numbered list of each spheroid and its area in the micrograph. In the few cases that two adjacent spheroids were treated as one object by the image processing software, their measurements were manually corrected using the “Freehand Selections” tool. To exclude background and debris from dead cells, spheroids with areas less than 500 μm^2 were excluded from the image analyses.
(§1) SW480 or HCT116 cells were seeded into regular or Matrigel-coated 96-well plates at a density of 1000 cells/well. The cells were cultured in the corresponding adherent or spheroid culture medium (200 μL/well) containing the designated compounds or an equivalent amount of DMSO vehicle. Each culture was maintained for 7 days, and then cell viabilities were measured using a CellTiter-Glo 3D Cell Viability Assay kit (Promega). Briefly, 100 μL of the culture medium was removed from each well and replaced with 100 μL 3D Cell Assay reagent. The cells in each well were next homogenized by vigorous pipetting, and the plate was incubated for 10 min at room temperature to stabilize the chemiluminescent signal. A 150-μL aliquot from each well was then transferred into a white opaque 96-well assay plate (flat-bottom and non-treated; Corning Costar) and luminescence intensities were measured with a Veritas microplate luminometer (Turner BioSystems).

SW480 cells (adherent) = assay: Cell viability assay, adherent SW480 cultures; format: cell-based, human; conditions: adherent culture, 7 days
Protocol: as §1

SW480 cells = assay: Seahorse oxygen-consumption-rate assay (SW480); format: cell-based; conditions: Homo sapiens
Protocol: SW480 cells were seeded into a XF96 microplate (Agilent) at a density of 2×10^4 cells/well and cultured for 24 h. The cells were then incubated for 1 h at 37° C. in a non-CO2 incubator, and the plate was then loaded into a 96-well Seahorse XF analyzer (Agilent) and sequentially injected with the indicated compounds, 1 μM oligomycin A, 1 μM FCCP, or 0.5 μM rotenone/antimycin according to the Agilent Mito Stress protocol. The oxygen consumption rates (OCRs, pmol/min) for each well were measured every 5 min for a 15-min period. Basal OCR values was normalized as 100% for data analyses.

Hedgehog (Hh) signaling = assay: Hh pathway assay (Shh-LIGHT2 Gli-dependent luciferase reporter, NIH-3T3); format: cell-based, murine; conditions: Mus musculus; read-out: IC50 in Hh pathway assays
Protocol: NIH-3T3 cells stably transfected with Gli-dependent firefly luciferase reporter (Shh-LIGHT2 cells (Taipale, J. et al. (2000) Nature 406, 1005-1009) were seeded into 96-well plates at a density of 2×10^4 cells/well and cultured for 24 h. The cells were then cultured in low-serum (0.5% CS) media containing 100 U/mL penicillin, 100 μg/mL streptomycin, and 200 nM Smoothened agonist (SAG) (Chen, J. K. et al. (2002) Proc. Natl. Acad. Sci. U.S.A. 99, 14071-14076; Frank-Kamenetsky, M. et al. (2002) J. Biol. 1, 10) for 30 h. CellTiter AQueous One (20 μL/well; Promega) was added to the cells and incubated for 30 min at 37° C., and cell viabilities were measured as the 490-nm absorbance of the culture media using a Spectramax M2e microplate reader (Molecular Devices). The cells were then washed with PBS and incubated with Bright-Glo reagent (100 μL/well; Promega) for 5 min at room temperature. The resulting chemiluminescence was measured on a Veritas microplate luminometer (Turner BioSystems) and normalized to the CellTiter signal. The normalized luciferase activities for each compound treatment regimen were normalized further to the DMSO control, and dose-responsive curves were generated using Prism software (GraphPad).

[1] = Matrigel spheroid culture, 7 days, read-out: Spheroid SW480 GI50

GI50 (SW480 cells (spheroid); [1]) | GI50 (SW480 cells (adherent); Homo sapiens, SW480, 168 h) | IC50 (SW480 cells) | IC50 (Hedgehog (Hh) signaling) | SMILES | effect on SW480 spheroid formation (SW480 cells (spheroid)) | GI50 (SW480 cells (spheroid); read-out: Spheroid SW480 GI50 (nM), Matrigel spheroid culture, 7 days) | GI50 (SW480 cells (adherent))
960 nM | 0.85 µM | 0.34 µM |  | COc1ccccc1-c1ccc(-c2cn(-c3ccccc3OC)c3[n+]2CCCCC3)cc1.[Br-] [Imidazolium 8] | strongly suppressed SW480 spheroid formation |  | 
 |  |  |  | COc1ccccc1C1=CN(c2ccc(-c3ccccc3)cc2)C2=NCCCN12 [STL5-T-0002] |  | 750 nM | 8.2 µM
820 nM | 0.57 µM | 0.54 µM | ~0.7 µM | COc1ccccc1-n1cc(-c2ccc(-c3ccccc3)cc2)[n+]2c1CCCCC2 [Imidazolium 2] | strongly suppressed SW480 spheroid formation |  | 
 |  |  |  | COc1ccccc1-n1cc(-c2ccccn2)[n+]2c1CCCCC2 [Compound 63] | did not impede the growth |  | 
1600 nM | 5.8 µM |  |  | COc1ccccc1C1=CN(c2ccc(-c3ccccc3)cc2)C2=NCCCCN12 [HPI-273] |  |  | 
